# Reference: patent publication US20230158042A1, “COMBINATION CANCER THERAPY WITH PENTAAZA MACROCYCLIC RING COMPLEX AND HORMONE THERAPY AGENT” (Galera Labs, LLC, priority 2020, published 2023)
# Assays:
# [1] = test system: Tam resistant as well as loss of Sirt3 tumor cell lines; assay: In vitro Tam resistance in Tam resistant and loss of Sirt3 tumor cell lines; type: cell-based; conditions: data not shown
# [2] = test system: LNCaP-MnSOD^K68Q xenografts; assay: LNCaP-MnSOD^K68Q hind limb xenograft growth in nude mice; type: in vivo; conditions: GC4419 10 mg/kg, once per week; tumor volumes for 46 days
# Procedure: FIGS. 21a-21b are a chart and graph showing that pharmacologically mimicking the activity of deacetylated lysine 68 MnSOD with a manganese pentaazamacrocyclic dismutase mimetic both inhibited the growth of LNCaP-ENZR tumors and reversed the enzalutamide resistance in LNCaP-ENZR / LNCaP—MnSOD^K68Q cells and tumors. In FIG. 21a, clonogenic cell survival experiments were performed in LNCaP-ENZR (left two bars) and LNCaP—MnSOD^K68Q (right two bars) treated with ENZ, with or without GC4419 (20 µM) for 5 days. […] Tumor volumes were measured three times a week for 46 days. For each group n=10. Error bars ± 1 SEM. All experiments done in triplicate. **p < 0.01.
structure (smiles),measurement,setting,value
[Cl][Mn][Cl].c1cc2nc(c1)CN[C@H]1CCCC[C@@H]1NCCN[C@H]1CCCC[C@@H]1NC2 [GC4419],Tam resistance,[1],reverses Tam resistance
same,xenograft growth,[2],significant inhibition of xenograft growth
